The values below come from ChEMBL document CHEMBL1151345, “Isolation of a new potential antitumor compound from Wedelia asperrima” (J Nat Prod, 1980).

The source made the active and inactive calls. The calls are words filed in the database; no cut-off is given here.

Data set [1] relates to Mus musculus. The experiment in a line: Toxicity in ip dosed mouse. The settings on record: in vivo. In kind it is organism-based.
Data set [2] is filed under the species Rattus norvegicus. Put plainly: Toxicity in Wistar rat. The data set is classed as organism-based. The settings on record: in vivo.
The species named for data set [3] is Rattus norvegicus. Put plainly: Antitumor activity against aflatoxin B1-induced tumor in Wistar rat at 30 ug for 8 weeks. The data set is classed as functional, organism-based.

In the case of `C=C1[C@H](O)[C@]23CC[C@H]4C(C(=O)O)(C(=O)O)C[C@@H](O[C@@H]5O[C@H](CO)[C@@H](O)[C@H](OC(=O)CCc6ccccc6)[C@H]5NC(=O)CC(C)C)C[C@]4(C)[C@H]2CC[C@@]1(O)C3` [WEDELOSIDE], the LD100 in data set [1] and in data set [2] was 1 mg/kg throughout. In addition, the outcome in data set [3] was Active.
Take `C=C1[C@H](O)[C@]23CC[C@H]4C(C(=O)O)(C(=O)O)C[C@@H](O[C@@H]5O[C@H](CO)[C@@H](O[C@@H]6O[C@@H](C)[C@H](O)[C@@H](O)[C@H]6O)[C@H](OC(=O)CCc6ccccc6)[C@H]5NC(=O)CC(C)C)C[C@]4(C)[C@H]2CC[C@@]1(O)C3`: the LD100 in data set [1] and in data set [2] was 1 mg/kg each time.
